# Assay results as given in PubChem BioAssay (NCI).
# Values joined by “and” are separate entries in the source; they are usually repeats but may differ in a detail not shown here. Identical values can stand only once.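 Briefly, cells in 96-well plates were exposed to five compound concentrations for 48 h, and endpoints were estimated by linear interpolation. GI50 is the concentration that inhibits growth by half. TGI is the concentration that stops growth completely.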
# What was measured:
# Assay in all cases: inhibition of tumour cell growth, NCI panel, 48 h
# [1] = test system: COLO 205 colon
# [2] = test system: TK-10 renal
# [3] = test system: CAKI-1 renal
# [4] = test system: A549 NSCLC
# [5] = test system: SK-MEL-28 melanoma
# [6] = test system: NCI-H460 lung
# [7] = test system: OVCAR-5 ovarian
# [8] = test system: SK-MEL-2 melanoma
# [9] = test system: MDA-MB-435
# [10] = test system: HCC-2998 colon
Compound,TGI [1],TGI [2],TGI [3],TGI [4],TGI [5],TGI [6],TGI [7],TGI [8],TGI [9],GI50 [10],TGI [10],GI50 [1],GI50 [3],GI50 [4],GI50 [5],GI50 [6],GI50 [7],GI50 [9],GI50 [2],GI50 [8]
c1cc(CCN2CCCCC2)ccn1,> 100 µM,> 100 µM,> 100 µM,> 100 µM,> 100 µM,> 100 µM,> 100 µM,> 100 µM,> 100000 nM,–,–,–,–,–,–,–,–,–,–,–
Cn1ccc2c(c1=O)C(=O)c1nccc3c1c-2nc1ccccc13,2.96 µM,–,2.85 µM,2.9 µM,3.05 µM,3.09 µM,3.46 µM,–,3130 nM,1720 nM,3.15 µM,1570 nM,1440 nM,1470 nM,1610 nM,1360 nM,1920 nM,1620 nM,–,–
O=c1c2cc(Br)ccc2nc(-c2ccccc2Cl)n1NCC1(O)OCC(O)C(O)C1O (stereo not given),> 100 µM,–,> 100 µM,> 100 µM,> 100 µM,> 100 µM,> 100 µM,> 100 µM,–,–,–,–,–,–,–,–,–,–,–,–
Nc1ccn(CCO)c(=O)n1,> 100 µM,> 100 µM,> 100 µM,> 100 µM,> 100 µM,> 100 µM,> 100 µM,> 100 µM,–,–,> 100 µM,–,–,–,–,–,–,–,–,–
O=C(/C=C/c1cccs1)c1ccc(Nc2nc(Nc3ccc(F)cc3)nc(Nc3ccc(F)cc3)n2)cc1,80.2 µM,> 100 µM,> 100 µM,22.5 µM,39.1 µM,> 100 µM,> 100 µM,> 100 µM,67600 nM,15800 nM,> 100 µM,12500 nM,38100 nM,3870 nM,18200 nM,20400 nM,> 100000 nM,24500 nM,40400 nM,44400 nM
COC(C(=O)C(O)C(C)O)C1Cc2cc3cc(OC4CC(OC(C)=O)C(OC5CC(O)C(OC)C(C)O5)C(C)O4)cc(O)c3c(O)c2C(=O)C1OC1CC(OC2CC(OC3CC(C)(O)C(OC(=O)C(C)C)C(C)O3)C(O)C(C)O2)C(O)C(C)O1 (stereo not given),–,–,–,12.3 µM and 11.1 µM,–,–,–,0.042 µM and 0.0104 µM,210 nM,–,–,–,–,32.8 nM and 4.52 nM,0.911 nM and 1.46 nM,26.1 nM and 11.3 nM and 3.05 nM,–,–,–,18.9 nM
O=C1/C(=C/c2ccccc2F)CNC/C1=C\c1ccccc1F,2.57 µM and 1.82 µM,8.48 µM and 3.5 µM,3.71 µM and 2.16 µM,9.35 µM and 5.59 µM,4.7 µM and 3.63 µM,3.29 µM and 3.3 µM,2.34 µM and 3.96 µM,6.18 µM and 6.46 µM,1460 nM and 1920 nM,1130 nM and 359 nM,2.38 µM and 1.16 µM,820 nM and 584 nM,676 nM and 611 nM,1810 nM and 1270 nM,2020 nM and 1790 nM,693 nM and 458 nM,935 nM and 1910 nM,482 nM and 472 nM,2920 nM and 1510 nM,2530 nM and 2770 nM
C/C(=C\c1ccn(-c2ccc(N)c(F)c2)n1)[C@@H]1C[C@@H]2O[C@]2(C)CCC[C@H](C)[C@H](O)[C@@H](C)C(=O)C(C)(C)[C@@H](O)CC(=O)O1,0.128 µM,> 50 µM,> 50 µM,> 50 µM,> 50 µM,> 50 µM,> 50 µM,> 50 µM,–,28.7 nM,> 50 µM,8.45 nM,80.2 nM,11.8 nM,7030 nM,9.38 nM,47.2 nM,–,64 nM,32.1 nM
CCCCCCCCCCC(O)[C@H]1CCC(C2CC[C@H]([C@H](O)CCCCCCCCCCC(O)CC3=CC(C)OC3=O)O2)O1 (stereo not given in full),2.84 µM and 5.12 µM,–,–,> 100 µM,7.73 µM,4.12 µM and 29.9 µM,9.11 µM,3.43 µM and 4.72 µM,–,–,15 µM,2170 nM,4090 nM,2960 nM,–,2160 nM,2580 nM,–,4050 nM,1760 nM
Cc1ccc(NC(=O)c2cc3ccccc3c(N=Nc3ccccc3O)c2O)c(C)c1,11.5 µM,24.5 µM,11.4 µM,12.7 µM,79.1 µM,12.1 µM,19.5 µM,14.9 µM,–,–,18.7 µM,–,–,–,–,–,–,–,–,–
CC(/C(=N/NC(=O)C(N)=O)c1c(Cl)ccc(Cl)c1O)C1(O)C(=O)Nc2ccccc21 (stereo not given),49.1 µM,> 100 µM,> 100 µM,> 100 µM,> 100 µM,78.9 µM,> 100 µM,> 100 µM,–,–,> 100 µM,–,–,–,–,–,–,–,–,–
CC(=O)NCCSC(=O)c1ccccc1,0.516 µM,0.475 µM,0.239 µM,2.06 µM,1.14 µM,6.44 µM,0.527 µM,0.827 µM,371 nM,–,–,–,–,–,–,–,–,–,–,–
OCC(O)C(OC1OC(CO)C(O)C(O)C1O)c1nn(-c2ccccc2)c2nc3cc(Cl)c(Cl)cc3cc12 (stereo not given),–,> 100 µM,–,–,> 100 µM,> 100 µM,> 100 µM,–,–,–,> 100 µM,–,–,–,–,–,–,–,–,–
CCN(CCNc1ccc(C)c2sc3cc(Cl)ccc3c(=O)c12)CC(C)O (stereo not given),3.24 µM,2.91 µM,2.49 µM,3.45 µM,3.4 µM,3.34 µM,–,–,3270 nM,2180 nM,3.62 µM,1720 nM,643 nM,1850 nM,1910 nM,1780 nM,–,1640 nM,1510 nM,–
Cc1ccc(/C=C2/SC(Nc3nc(-c4nc(NC5=NC(=O)/C(=C\c6ccc(C)cc6)S5)sc4C)c(C)s3)=NC2=O)cc1,> 50 µM,1.21 µM,9.41 µM,> 36.6 µM,> 50 µM,> 50 µM,> 50 µM,> 50 µM,–,1710 nM,9.92 µM,35200 nM,484 nM,1370 nM,35300 nM,643 nM,8050 nM,–,288 nM,36300 nM
CS(=O)(=O)OCCn1cnc2nc(NC(=O)c3ccccc3)[nH]c(=O)c21,> 100 µM,> 100 µM,> 100 µM,> 100 µM,> 100 µM,> 100 µM,> 100 µM,> 100 µM,–,–,–,–,–,–,–,–,–,–,–,–
COCC1N=C(c2cc(OC)c(OC)c(OC)c2-c2cc3c(cc2C2OCCCO2)OCO3)O[C@H]1c1ccccc1 (stereo not given in full),–,> 100 µM,> 100 µM,> 100 µM,> 100 µM,> 100 µM,> 100 µM,> 100 µM,–,–,> 100 µM,–,–,–,–,–,–,–,–,–
Cc1cccc(NC(=O)c2cc3cc(N=Nc4ccccc4Cl)ccc3oc2=O)c1,> 100 µM,86.2 µM,> 100 µM,> 100 µM,> 100 µM,> 100 µM,56.8 µM,–,–,–,70.4 µM,–,–,–,–,–,–,–,–,–
